The values below come from patent US20070270421A1, “Novel pyridine Derivative and Pyrimidine Derivative (1)” (priority 2004, published 2007).

The subject of test [1] is Human pancreatic cancer cells (SUIT-2). The experiment in a line: Inhibitory activity against migration of human pancreatic cancer cells (SUIT-2). In kind it is cell-based. The note with it: SUIT-2, Transwell, HGF stimulation, 24 hrs, read-out: IC50 (concentration necessary to inhibit the cell migration activity by 50%). The protocol:
Human pancreatic cancer cells (SUIT-2) were suspended in a 1% FBS-containing RPMI1640 medium (purchased from Sigma) to prepare a cell suspension (8×10^5 cells/ml). To the lower compartment of Transwell (purchased from COSTAR, Production No. 3422) was added 600 μl of a 1% FBS-containing RPMI1640 medium. To the upper compartment were added 50 μl of the above cell suspension and 25 μl of the test substance dissolved in dimethyl sulfoxide (diluted with the 1% FBS-containing RPMI1640 medium), followed by culturing in a 5% CO2 incubator (37° C.) for 1 hr. After the culture, to the upper compartment of each Transwell was added 25 μl of human recombinant hepatocyte growth factor (HGF, purchased from Wako Pure Chemical Industry, Production No. 22949) diluted to 280 ng/ml with a 1% FBS-containing RPMI1640 medium, followed by culturing in a 5% CO2 incubator (37° C.) for 24 hrs. The cells adhering to the lower compartment of each well were counted in five fields by a phase contrast microscope (200×) to calculated an average adhering cell number. While defining the average adhering cell number of a well supplied with […] and no test substance as 100% cell migration activity and the average adhering cell number of a well supplied with no HGFR and no test substance as 0% cell migration activity, the cell migration activity percent (%) was calculated for each well. The concentration of the test substance was varied at several levels to calculate the cell migration activity percent (%) for respective cases, and to calculate the concentration of the test substance necessary to inhibit the cell migration activity by 50% (IC50).

Test [2] has as its system Human gastric cancer cells (MKN-45) tumor. As to the kind of experiment: Inhibitory activity against the tumor growth of human gastric cancer cells (MKN-45) transplanted in mice. In kind it is in vivo, BALB/c (nu/nu) mice. The note with it: oral, twice every day, fifth day, tumor volume relative to control group. Here is the method: Human gastric cancer cells (MNK-45) were suspended in HBSS (purchased from GIBCO BRL). The cell suspension (5×10^7 cells/ml) was transplanted under the right flank skin of seven-week-old female BALB/c (nu/nu) mice at a volume of 0.1 ml. When tumor volume of the site transplanted with MNK-45 cells grew to 100-200 mm^3, mice were grouped so that the groups might be equalized in average tumor volume. The test substance was suspended in 0.5% methylcellulose, a mixed solution of hydrochloric acid and glucose (0.1N hydrochloric acid:5% glucose=1:9) or a mixed solution of dimethyl sulfoxide-Tween-glucose (dimethyl sulfoxide:Tween 80:5% glucose (containing equimolar hydrochloric acid to the test substance)=7:13:80), were administered orally to the mice twice every day. The tumor volumes were determined at the fifth day after the initiation of the administration of the test substances. The major axis and the minor axis of tumor were measured by a caliper to calculate 1/2×(major axis×minor axis×minor axis) for the tumor volume. The experiment was conducted using 10 mice in the control group (solvent-administered group) and 5 mice in test substance-administered group. The ratio in tumor volume of the group for administrating the test substance relative to that of the control group was defined as a tumor proliferation rate (%).

Test [3] deals with Human umbilical vein endothelial cells (HUVECs). The experiment in a line: Inhibitory activity against the growth of vascular endothelial cells stimulated with hepatocyte growth factor. Format: cell-based. The note with it: HUVEC, HGF stimulation, third day, Cell Counting Kit-8, read-out: IC50 (concentration necessary to inhibit cell proliferation activity by 50%). The protocol: Human umbilical vein endothelial cells (HUVECs) were isolated according to the reported method (Shin Seikagaku Jikken Koza, “Cell culturing techniques”, p 197-202), and then cultured in a 5% CO2 incubator (37° C.) using EGM-2 medium (purchased from Clonetics) until the cells reached confluency.
HUVECs were suspended in a serum-free medium for endothelial cell culture (SFM, purchased from GIBCO RBL) containing 2% FBS. The cell suspension (2×10^4 cells/ml) was put in a cell culturing 96-well plate (purchased from NUNC, Production No. 167008) at 0.1 ml/well, and then cultured in a 5% CO2 incubator (37° C.) overnight. […] After the incubation, using a Plate Reader MTP-500 (Corona Electric), the absorbance of each well was determined at a measurement wavelength of 450 nm and a reference wavelength of 660 nm. While defining the absorbance of a well supplied with HGF and no test substance as 100% cell proliferation activity and the absorbance of the well supplied with no test substance and no HGF as 0% cell proliferation activity, the cell proliferation activity ratio (%) was calculated for each cell. […]

In the case of `O=C(CC(=O)Nc1ccc(Oc2ccnc(NC(=O)N3CCCC3)c2)c(F)c1)Nc1ccc(F)cc1` [Example 56, N-(4-Fluorophenyl)-N′-(3-fluoro-4-{2-[(pyrrolidine-1-carbonyl)amino]pyridin-4-yloxy}phenyl)malonamide], the IC50 in test [1] amounted to 38 nM.

Regarding `O=C(Cc1ccc(F)cc1)NC(=S)Nc1ccc(Oc2cc(NC(=O)N3CCCC3)ncn2)c(F)c1` [Example 3, Pyrrolidine-1-carboxylic acid [6-(2-fluoro-4-{3-[2-(4-fluorophenyl)acetyl]thioureido}phenoxy)pyrimidin-4-yl]amide], the IC50 in test [1] stood at 50 nM; in test [3] it was 190 nM. For the same compound, the results for the “Tumor proliferation rate (%)” value in test [2] (Dose 30 mg/kg/time) and in test [2] (Dose 100 mg/kg/time) were 69% and 37%, respectively.

On to `O=C(Cc1ccc(F)cc1)NC(=S)Nc1ccc(Oc2ccnc(NC(=O)N3CCCC3)c2)c(F)c1` [Example 13, 4-(2-Fluoro-4-{3-[2-(4-fluorophenyl)acetyl]thioureido}phenoxy)-2-[(pyrrolidin-1-yl)carbonylamino]pyridine], for which the IC50 in test [1] is 3.2 nM; in test [3] it was 73 nM. Besides, the “Tumor proliferation rate (%)” value in test [2] (Dose 10 mg/kg/time) is on record as 68%; in test [2] (Dose 30 mg/kg/time), 47%; in test [2] (Dose 100 mg/kg/time) it was 26%.
